Our source for the TGI values is PubChem BioAssay (NCI).

Among the test systems are HT29 colon; SK-OV-3 ovarian; T-47D breast; NCI-H522 lung; ACHN renal; SK-MEL-28 melanoma; A498 renal; HCT-15 colon; NCI-H460 lung; DU-145 prostate; MDA-MB-231 breast; UACC-257 melanoma; NCI-H226 lung; SN12C renal; MDA-MB-435; SR leukemia; CAKI-1 renal; OVCAR-8 ovarian; BT-549 breast; 786-0 renal.
What all share (assay): NCI anticancer screen, dose series, 48 h

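96-well plates; 48 h exposure; 5 concentrations. Endpoints by linear interpolation between flanking doses. Not reached: highest tested concentration assigned. TGI marks complete inhibition of growth.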

On to `O=S(=O)(O)c1ccc2c(N=Nc3c(O)ccc4ccccc34)cccc2c1`, for which the TGI in the test with HT29 colon, with SK-OV-3 ovarian, in the test with T-47D breast, in the test with NCI-H522 lung, in the test with ACHN renal and in the test with SK-MEL-28 melanoma was > 100 µM each time. Moreover, the TGI with A498 renal, in the test with HCT-15 colon, in the test on NCI-H460 lung, with DU-145 prostate, in the test with MDA-MB-231 breast and with UACC-257 melanoma was > 100 µM throughout. The TGI in the test with NCI-H226 lung, with SN12C renal, with MDA-MB-435, in the test on SR leukemia, in the test with CAKI-1 renal and with OVCAR-8 ovarian was > 100 µM each time. Besides, the TGI in the test with BT-549 breast and in the test on 786-0 renal was > 100 µM each time.
`O=C(O)c1ccccc1CC(Cc1ccccc1)C(=O)O` (stereo not given): the TGI with HT29 colon, in the test on SK-OV-3 ovarian, with T-47D breast, in the test with NCI-H522 lung, in the test with ACHN renal and in the test with SK-MEL-28 melanoma was > 100 µM throughout. The TGI in the test with A498 renal, in the test on HCT-15 colon, in the test on NCI-H460 lung, in the test on DU-145 prostate, in the test on MDA-MB-231 breast and with UACC-257 melanoma was > 100 µM each time. Further, the TGI in the test with NCI-H226 lung, with SN12C renal, in the test on MDA-MB-435, in the test with SR leukemia, in the test on CAKI-1 renal and in the test on OVCAR-8 ovarian was > 100 µM in each case. In addition, the TGI with BT-549 breast and in the test with 786-0 renal was > 100 µM each time.
For `O=C(O)Cc1ccc(Oc2nc3ccccc3nc2-c2ccccc2)cc1`, the TGI in the test on HT29 colon, in the test on SK-OV-3 ovarian, with T-47D breast, in the test on NCI-H522 lung, in the test on ACHN renal and in the test on SK-MEL-28 melanoma was > 100 µM in each case. In addition, the TGI in the test on A498 renal, in the test with HCT-15 colon, in the test on NCI-H460 lung, with DU-145 prostate, in the test on MDA-MB-231 breast and in the test on UACC-257 melanoma was > 100 µM each time. Besides, the TGI with NCI-H226 lung, in the test on SN12C renal, in the test with MDA-MB-435, with SR leukemia, in the test with CAKI-1 renal and in the test with OVCAR-8 ovarian was > 100 µM in each case. Further, the TGI with BT-549 breast and with 786-0 renal was > 100 µM each time.
Turning to `CN(CCCNC(=O)c1c2ccc3ccccc3c2nn1C)CCCNC(=O)c1c2ccc3ccccc3c2nn1C`, the TGI in the test with HT29 colon came to 6.93 µM; with SK-OV-3 ovarian, 28.4 µM; with T-47D breast, 32.2 µM; in the test with NCI-H522 lung it was 19.7 µM; in the test with ACHN renal, 23.8 µM; with SK-MEL-28 melanoma, 4.6 µM. Also, the TGI in the test with A498 renal is 15.7 µM; in the test with HCT-15 colon it was 19.4 µM; in the test with NCI-H460 lung it was 18.4 µM; in the test with DU-145 prostate, 44.4 µM; in the test on MDA-MB-231 breast, 25.8 µM; in the test with UACC-257 melanoma it was 3.57 µM. Also, the TGI with NCI-H226 lung worked out at 31.1 µM; in the test with SN12C renal, 25.6 µM; with MDA-MB-435, 6.09 µM; in the test with SR leukemia it was 13 µM; in the test with CAKI-1 renal, 15.3 µM; with OVCAR-8 ovarian it was 27.2 µM. The TGI turned out to be 24 µM with BT-549 breast and 25.7 µM with 786-0 renal.
Regarding `Clc1ccc(Cn2cc(/C=N/n3cnnc3)c3ccccc32)cc1`, the TGI in the test with HT29 colon was > 100 µM; in the test on SK-OV-3 ovarian, > 100 µM; in the test on T-47D breast it was 52.3 µM; with NCI-H522 lung, > 100 µM; with ACHN renal it was > 100 µM; in the test on SK-MEL-28 melanoma, > 100 µM. Moreover, the TGI with A498 renal was 4.34 µM; with HCT-15 colon, > 100 µM; in the test on NCI-H460 lung, 75 µM; in the test with DU-145 prostate, > 100 µM; in the test with MDA-MB-231 breast, 74.5 µM; in the test on UACC-257 melanoma, > 100 µM. Also, the TGI in the test on NCI-H226 lung was 4.14 µM; in the test on SN12C renal, > 100 µM; in the test with MDA-MB-435 it was > 100 µM; in the test on SR leukemia, > 100 µM; with CAKI-1 renal, > 100 µM; in the test with OVCAR-8 ovarian, > 100 µM. In addition, the TGI in the test with BT-549 breast and in the test on 786-0 renal was > 100 µM in each case.
Take `COc1cccc(/C=C2/S/C(=N/Nc3nc(C)c(C(C)=O)s3)NC2=O)c1O`: the TGI in the test with HT29 colon is > 100 µM; with SK-OV-3 ovarian it was > 100 µM; in the test with T-47D breast it was 96.5 µM; in the test with NCI-H522 lung, 33.2 µM; in the test with ACHN renal, 51.6 µM; in the test with SK-MEL-28 melanoma, > 100 µM. For the same molecule, the TGI in the test on A498 renal is > 100 µM; with HCT-15 colon, > 100 µM; in the test with NCI-H460 lung, > 100 µM; in the test on DU-145 prostate, > 100 µM; in the test on MDA-MB-231 breast, 44.8 µM; with UACC-257 melanoma it was 86.2 µM. The TGI with NCI-H226 lung, in the test on SN12C renal, in the test with MDA-MB-435, with SR leukemia, in the test on CAKI-1 renal and in the test with OVCAR-8 ovarian was > 100 µM in each case. Besides, the TGI was 97 µM with BT-549 breast and > 100 µM in the test with 786-0 renal.
